From patent US20250188151A1, “C-JUN ANTAGONIST PEPTIDES” (The University of Bath, priority 2022, published 2025)
Bridge positions count the residues as written; N and C are the ends. Peptide text beside a SMILES is read from it.

B1: HingeW variant peptide 13 (peptide)
peptide: Ac-KEAEDLVVEEDVLEEEIEQLEERNYALRKEIKDLQDQ-NH2
modifications: lactam (positions not given here); also: one i to i+4 K-D lactam bridge, pair not given here
notes: Synthetic, NΔ19 CΔ7; also called cyclised form of 12/13
B2: HingeW variant peptide 15 (peptide)
peptide: Ac-EAKELVDEEDVLEEEIEQLEERNYALRKEIEDLQKQ-NH2
modifications: lactam 3-7
notes: Synthetic, NΔ20 CΔ7; also called cyclised form of 14/15
B3: HingeW variant peptide 17 (peptide)
peptide: Ac-EAEELVVEEKVLEDEIEQLEERNYALRKEIEDLQKQ-NH2
modifications: lactam 10-14
SMILES: CC[C@H](C)[C@H](NC(=O)[C@H](CCC(=O)O)NC(=O)[C@H](CCCCN)NC(=O)[C@H](CCCNC(=N)N)NC(=O)[C@H](CC(C)C)NC(=O)[C@H](C)NC(=O)[C@H](Cc1ccc(O)cc1)NC(=O)[C@H](CC(N)=O)NC(=O)[C@H](CCCNC(=N)N)NC(=O)[C@H](CCC(=O)O)NC(=O)[C@H](CCC(=O)O)NC(=O)[C@H](CC(C)C)NC(=O)[C@H](CCC(N)=O)NC(=O)[C@H](CCC(=O)O)NC(=O)[C@@H](NC(=O)[C@H](CCC(=O)O)NC(=O)[C@@H]1CC(=O)NCCCC[C@H](NC(=O)[C@H](CCC(=O)O)NC(=O)[C@H](CCC(=O)O)NC(=O)[C@@H](NC(=O)[C@@H](NC(=O)[C@H](CC(C)C)NC(=O)[C@H](CCC(=O)O)NC(=O)[C@H](CCC(=O)O)NC(=O)[C@H](C)NC(=O)[C@H](CCC(=O)O)NC(C)=O)C(C)C)C(C)C)C(=O)N[C@@H](C(C)C)C(=O)N[C@@H](CC(C)C)C(=O)N[C@@H](CCC(=O)O)C(=O)N1)[C@@H](C)CC)C(=O)N[C@@H](CCC(=O)O)C(=O)N[C@@H](CC(=O)O)C(=O)N[C@@H](CC(C)C)C(=O)N[C@@H](CCC(N)=O)C(=O)N[C@@H](CCCCN)C(=O)N[C@@H](CCC(N)=O)C(N)=O
notes: Synthetic, NΔ20 CΔ7; also called cyclised form of 16/17

Legend:
[1] = biological target: T1, cJun/TRE DNA interaction (Homo sapiens, UniProt P05412, S292Y); test: CD cJun/TRE DNA antagonism (shift of TRE DNA peak at ~281 nm, Hill fit); type: biochemical
T1 construct: The same 60 amino acid c-Jun bZIP construct was used for all experiments; His-SUMO (N, cleaved yes); made in house; host or cells: E. coli
Description: Briefly, in TBS the coding region for the essential gene dihydrofolate reductase (DHFR) is mutated to incorporate TRE sites so that introduction of c-Jun to this gene inside E. coli produces a transcriptional block that abrogates cell proliferation. The TRE site-bound c-Jun molecules sterically prevent RNA polymerase transcribing the essential gene and this can only be restored upon introduction of an effective c-Jun/TRE antagonist. Consequently, the survival of a particular cell is controlled by the ability of a peptide library member to remove the c-Jun transcriptional block and therefore to restore DHFR activity. TBS thus facilitates the identification of therapeutically valuable sequences. Further details for the TBS assay are provided in WO2020128015, which is incorporated herein by reference in its entirety. […] The TRE-DNA construct produces a positive CD peak at ˜281 nm, which decreases in intensity upon c-Jun binding. […] This method allows for the calculation of an IC50 value by fitting the titration data to a Hill equation. In some embodiments, the c-Jun antagonist is able to inhibit the DNA-binding activity of c-Jun within 10-fold of the ability of HingeW to inhibit the DNA-binding activity of c-Jun (e.g. the c-Jun antagonist has a reduced ability to inhibit the DNA-binding activity of c-Jun that is within 10-fold of that determined for HingeW). In some embodiments, the c-Jun antagonist is able to inhibit the DNA-binding activity of c-Jun within 9-fold, preferably within 8-fold, more preferably within 7-fold, even more preferably within 6-fold, yet more preferably within 5-fold of the ability of HingeW to inhibit the DNA-binding activity of c-Jun. The ability of the c-Jun antagonist and HingeW to inhibit the DNA-binding activity may be measured using the TBS assay (e.g. by quantifying the number of colonies) or by determining the IC50 using a circular dichroism assay described herein. Optionally, the c-Jun antagonist may have this activity when cross-linked. Methods for cross-linking peptides are described in more detail below.
Therefore, the acidic domain was the initial focus for optimisation. 1 was iteratively truncated (2-6) to investigate the effect on c-Jun binding and c-Jun/TRE DNA antagonism. […] Thermal denaturation experiments were then used to determine the Tm of peptide-c-Jun heterodimers, which was used as an approximate measure of target engagement. CD was also used to investigate the ability of the functional activity of peptides in antagonising the c-Jun/TRE DNA interaction. The TRE-DNA construct used produces a positive CD peak at ˜281 nm (no c-Jun absorbance at this wavelength allows for direct measurement of DNA upon binding) which decreases in intensity upon c-Jun binding. […] This allowed for the calculation of an IC50 value by fitting the titration data to a Hill equation. […] The same 60 amino acid c-Jun bZIP construct was used for all experiments, regardless of antagonist peptide length.

[2] = Serum stability (LC-MS); type: in vitro ADME; conditions: human serum; for remaining at 96 h, 30 μM / metabolised at 24 h, 30 μM: 37° C.; for remaining at 96 h, 30 μM: after 96 hours, read-out: peak intensities relative to starting values; for metabolised at 24 h, 30 μM: read-out: degraded
Procedure: Serum Stability: Peptide stocks (600 μM) were prepared in water and 50 μL added to 950 μL human serum (Merck) before incubation at 37° C. […] The supernatant was analysed by LC-MS and quantified using the sum of the two largest charge state intensities (1: 9+, 10+; 23,24: 3+, 4+).

[3] = biological target: cJun bZIP (Homo sapiens, UniProt P05412, S292Y); test: CD spectra and thermal denaturation of peptide/cJun heterodimers; conditions: for Tm (° C.): peptide (5 μM)/c-Jun (5 μM) heterodimer, Table 6
Procedure: (§1) Circular Dichroism (CD): An Applied Photophysics Chirascan was used for CD measurements, with a 200 μL sample in a 1 mm path length CD cell. Protein/DNA samples were suspended in 150 mM potassium phosphate, 150 mM potassium fluoride and 5 mM TCEP at pH 7.4 and were equilibrated for 30 minutes before measurement. […] These scans were averaged and converted to molar residue ellipticities (MRE). Thermal denaturation experiments were performed by measuring the ellipticity at 222 nm over a 1 to 90° C. gradient at 1° C. increments. Post-melt scans at 20° C. confirmed the transitions were reversible as they overlaid within 10% of the pre-melt scan.
(§2) Circular Dichroism (CD): An Applied Photophysics Chirascan was used for CD measurements, with a 200 μL sample in a 1 mm path length CD cell. Protein/DNA samples were suspended in 150 mM potassium phosphate, 150 mM potassium fluoride and 5 mM TCEP at pH 7.4 and were equilibrated for 30minutes before measurement. […] Thermal denaturation experiments were performed by measuring the ellipticity at 222 nm over a 1 to 90° C. gradient at 1° C. increments. Post-melt scans at 20° C. confirmed the transitions were reversible as they overlaid within 10% of the pre-melt scan.
(§3) Peptide helicity was determined by quantifying the CD signal at 222 nm of peptide only samples. Thermal denaturation experiments were then used to determine the Tm of peptide-c-Jun heterodimers, which was used as an approximate measure of target engagement. […] The same 60 amino acid c-Jun bZIP construct was used for all experiments, regardless of antagonist peptide length.

[4] = CD spectra and thermal denaturation of peptide-only samples (helicity, homodimer Tm)
Procedure: as §1, §2, §3

[5] = biological target: cJun (Homo sapiens, UniProt P05412, S292Y); test: Isothermal titration calorimetry, Example 2 (PEAQ-ITC); type: binding; design: The same 60 amino acid c-Jun bZIP construct was used for all experiments; His-SUMO (N, cleaved yes); made in house; host or cells: E. coli; conditions: for ΔG / ΔH / −TΔS / Stoichiometry, n: ITC; for Stoichiometry, n: c-Jun-peptide interaction
Procedure: 2 μL injections of antagonist peptide at 25-200 μM were injected into the cell containing cJun at 2.5-20 μM. Software was used to record and analyse the heat change upon addition. Control experiments involved the injection of the antagonist peptide sample into the cell containing ITC buffer alone to determine the heat of dilution which was subtracted. The resulting binding data were fit to a one site binding model to extract the enthalpy change of binding (ΔH) and the equilibrium binding constant (KD), from which the free energy change of binding (ΔG) and the entropy change of binding (ΔS) was calculated (Wiseman et al., 1989). Thermodynamic parameters are presented as an average of two independent experiments with errors given as one standard deviation.

[6] = biological target: T2, cJun bZIP (human, UniProt P05412 252-308, limits assumed); test: CD thermal denaturation
T2 construct: Purified from a His-SUMO fusion with the tag cleaved off; also called c-Jun bZIP domain; 60 amino acid c-Jun bZIP construct
T2 chain: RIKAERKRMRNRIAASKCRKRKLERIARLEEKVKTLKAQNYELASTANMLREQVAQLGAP

[7] = biological target: T2, cJun bZIP; test: cell-based or functional assay
[8] = biological target: T2, cJun bZIP; test: CD thermal denaturation, peptide 5 µM and c-Jun 5 µM
[9] = biological target: T2, cJun bZIP; test: ITC (PEAQ-ITC), peptide injected into cJun, one site model

Molecule | remaining at 96 h, 30 μM [2] | metabolised at 24 h, 30 μM [2] | Tm (° C.) [3] | ΔG [5] | ΔH [5] | −TΔS [5] | Stoichiometry, n [5] | IC50 CD [7] | Tm (° C.) of peptide-c-Jun heterodimer [8] | further results
CC[C@H](C)[C@H](NC(=O)[C@H](CCC(=O)O)NC(=O)[C@H](CCCCN)NC(=O)[C@H](CCCNC(=N)N)NC(=O)[C@H](CC(C)C)NC(=O)[C@H](C)NC(=O)[C@H](Cc1ccc(O)cc1)NC(=O)[C@H](CC(N)=O)NC(=O)[C@H](CCCNC(=N)N)NC(=O)[C@H](CCC(=O)O)NC(=O)[C@H](CCC(=O)O)NC(=O)[C@H](CC(C)C)NC(=O)[C@H](CCC(N)=O)NC(=O)[C@H](CCC(=O)O)NC(=O)[C@@H](NC(=O)[C@H](CCC(=O)O)NC(=O)[C@@H]1CC(=O)NCCCC[C@H](NC(=O)[C@H](CCC(=O)O)NC(=O)[C@H](CCC(=O)O)NC(=O)[C@@H](NC(=O)[C@@H](NC(=O)[C@H](CC(C)C)NC(=O)[C@H](CCC(=O)O)NC(=O)[C@H](CCC(=O)O)NC(=O)[C@H](C)NC(=O)[C@H](CCC(=O)O)NC(C)=O)C(C)C)C(C)C)C(=O)N[C@@H](C(C)C)C(=O)N[C@@H](CC(C)C)C(=O)N[C@@H](CCC(=O)O)C(=O)N1)[C@@H](C)CC)C(=O)N[C@H]1CCCCNC(=O)C[C@@H](C(=O)N[C@@H](CCC(N)=O)C(N)=O)NC(=O)[C@H](CCC(N)=O)NC(=O)[C@H](CC(C)C)NC(=O)[C@H](CC(=O)O)NC1=O [Peptide 24] (Ac-EAEELVVEEKVLEDEIEQLEERNYALRKEIKDLQDQ-NH2; lactam 10-14, 31-35 (inferred)) | 35% | 7% | 63.2 ± 1.3 °C | -10.95 ± 0.241 kcal/mol | -30.55 ± 0.624 kcal/mol | 19.6 ± 0.669 kcal/mol | 1.05 ± 0.01 |  |  | change in IC50 compared to the best single lactamised peptide ([1]; P=0.02): significant decrease in IC50 value; serum stability ([2]; LC-MS): highest stability; change in heterodimer Tm compared to the best single lactamised peptide [3]: no significant change in heterodimer Tm; increase in peptide helicity from 1 [4]: 20%; more helical compared to the best single lactamised peptide [4]: ~4%
CC[C@H](C)[C@H](NC(=O)[C@H](CCC(=O)O)NC(=O)[C@H](CCCCN)NC(=O)[C@H](CCCNC(=N)N)NC(=O)[C@H](CC(C)C)NC(=O)[C@H](C)NC(=O)[C@H](Cc1ccc(O)cc1)NC(=O)[C@H](CC(N)=O)NC(=O)[C@H](CCCNC(=N)N)NC(=O)[C@H](CCC(=O)O)NC(=O)[C@H](CCC(=O)O)NC(=O)[C@H](CC(C)C)NC(=O)[C@H](CCC(N)=O)NC(=O)[C@H](CCC(=O)O)NC(=O)[C@@H](NC(=O)[C@H](CCC(=O)O)NC(=O)[C@H](CCC(=O)O)NC(=O)[C@H](CCC(=O)O)NC(=O)[C@H](CC(C)C)NC(=O)[C@@H](NC(=O)[C@H](CC(=O)O)NC(=O)[C@H](CCC(=O)O)NC(=O)[C@H](CCC(=O)O)NC(=O)[C@@H](NC(=O)[C@@H](NC(=O)[C@H](CC(C)C)NC(=O)[C@H](CCC(=O)O)NC(=O)[C@H](CCC(=O)O)NC(=O)[C@H](C)NC(=O)[C@H](CCC(=O)O)NC(C)=O)C(C)C)C(C)C)C(C)C)[C@@H](C)CC)C(=O)N[C@H]1CCCCNC(=O)C[C@@H](C(=O)N[C@@H](CCC(N)=O)C(N)=O)NC(=O)[C@H](CCC(N)=O)NC(=O)[C@H](CC(C)C)NC(=O)[C@H](CC(=O)O)NC1=O [Peptide 23] (Ac-EAEELVVEEDVLEEEIEQLEERNYALRKEIKDLQDQ-NH2; lactam 31-35 (inferred)) | 17% | 21% | 65.0 ± 1.4 °C | -9.661 ± 0.117 kcal/mol | -23.6 ± 0.607 kcal/mol | 13.95 ± 0.619 kcal/mol | 0.97 ± 0.02 |  |  | fold lower IC50 than 11 ([1]; P=0.003): 1.6 fold; heterodimer ΔTm compared to parent sequence 11 [3]: ~8 °C; heterodimer ΔTm from lactamisation ([3]; cyclised vs its linear form): ~9 °C; change in fraction helicity from lactamisation ([4]; cyclised vs its linear form): ~8%; Kd [5]: 0.0866 ± 0.017 µM
B1 |  |  |  |  |  |  |  | 92.5 µM | 58.5 ° C. | heterodimer ΔTm against parent sequence 11 [6]: ~1 ° C.
B2 |  |  |  |  |  |  |  | 81.1 µM | 59.4 ° C. | heterodimer ΔTm from lactamisation (15 against linear 14) [6]: ~2 ° C.
B3 |  |  |  |  |  |  |  | 74.9 µM | 64 ° C. | increase in cJun heterodimer Tm from its linear form 16 [6]: ~9 ° C.; -TΔS [9]: 4.34 kcal/mol; Kd [9]: 0.0696 µM; Stoichiometry, n [9]: 1.2; ΔG [9]: -9.77 kcal/mol; ΔH [9]: -14.1 kcal/mol
